Test [1] concerns the target T1, GABAA2 receptors (α2, β3, γ2 receptor subunits transfected into Sf9 cells) (Homo sapiens, UniProt P18507+P47869).
T1 construct: host or cells: Sf9 cells (membranes)
The experiment in a line: GABAA2 Binding Method ([3H]-Flunitrazepam displacement). Particulars: [3H]-Flunitrazepam ~2 nM, α2β3γ2 Sf9 membranes, 1 hr at 4° C. Here is the method:
In some embodiments, the binding test is directed to a subtype of GABAA receptors, such as GABAA1 receptors (i.e., those containing the α1 subunit), GABAA2 receptors (i.e., those containing the α2 subunit), GABAA3 receptors (i.e., those containing the α3 subunit) and GABAA5 receptors (i.e., those containing the α5 subunit).
[^3H]-Flunitrazepam (Cat #NET567): Prepare 10× stock=20 nM, [F} in assay=˜2 nM
1. […] Add 5 ul of 30 uM flumazenil to wells 12 D-E for 50% control wells.
5. Add 25 μl [^3H]-Flunitrazepam (Automation Program 6). Incubate for 1 hr at 4° C.
6. Collect membranes on a cell harvester onto GF/B filter plates (pre-wet with dH2O and wash 5×400 μl/well, with cold assay buffer. (First 3 washes are considered hot; last two are cold.)
Data is analyzed by calculating percent of control, IC50, and Ki in an XLfit template. The following formula is used in the templates: […]

The target in another test is T2, GABAA receptor α1β2γ2 (Homo sapiens, UniProt P14867+P18507).
T2 construct: expressed in transfected cells; host or cells: Xenopus laevis oocytes injected with cRNA
T2 sequence (P14867 28-456): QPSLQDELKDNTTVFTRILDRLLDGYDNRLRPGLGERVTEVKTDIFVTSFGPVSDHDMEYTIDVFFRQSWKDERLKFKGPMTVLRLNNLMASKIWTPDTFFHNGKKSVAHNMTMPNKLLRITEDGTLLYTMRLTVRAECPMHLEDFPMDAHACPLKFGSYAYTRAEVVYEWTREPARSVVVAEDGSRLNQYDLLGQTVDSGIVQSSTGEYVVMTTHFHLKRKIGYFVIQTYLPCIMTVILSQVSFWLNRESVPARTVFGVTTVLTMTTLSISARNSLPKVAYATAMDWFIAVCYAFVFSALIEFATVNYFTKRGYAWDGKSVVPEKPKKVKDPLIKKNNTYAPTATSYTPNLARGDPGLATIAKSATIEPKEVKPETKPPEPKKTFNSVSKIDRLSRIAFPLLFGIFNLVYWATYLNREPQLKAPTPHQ
T2 sequence (P47870 25-512 partner limits assumed): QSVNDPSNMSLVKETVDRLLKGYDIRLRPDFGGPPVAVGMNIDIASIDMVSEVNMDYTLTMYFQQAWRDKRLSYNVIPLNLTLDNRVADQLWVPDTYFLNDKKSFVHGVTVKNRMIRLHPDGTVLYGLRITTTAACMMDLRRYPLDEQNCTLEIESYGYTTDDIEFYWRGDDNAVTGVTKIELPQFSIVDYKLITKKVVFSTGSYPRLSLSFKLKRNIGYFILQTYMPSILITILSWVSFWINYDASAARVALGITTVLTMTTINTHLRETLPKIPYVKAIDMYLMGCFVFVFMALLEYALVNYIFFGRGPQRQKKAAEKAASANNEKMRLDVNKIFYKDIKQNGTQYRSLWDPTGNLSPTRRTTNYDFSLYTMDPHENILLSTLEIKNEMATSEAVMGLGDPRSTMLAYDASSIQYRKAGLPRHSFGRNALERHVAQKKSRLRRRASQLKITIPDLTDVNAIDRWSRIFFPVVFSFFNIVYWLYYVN
T2 sequence (P18507 40-475): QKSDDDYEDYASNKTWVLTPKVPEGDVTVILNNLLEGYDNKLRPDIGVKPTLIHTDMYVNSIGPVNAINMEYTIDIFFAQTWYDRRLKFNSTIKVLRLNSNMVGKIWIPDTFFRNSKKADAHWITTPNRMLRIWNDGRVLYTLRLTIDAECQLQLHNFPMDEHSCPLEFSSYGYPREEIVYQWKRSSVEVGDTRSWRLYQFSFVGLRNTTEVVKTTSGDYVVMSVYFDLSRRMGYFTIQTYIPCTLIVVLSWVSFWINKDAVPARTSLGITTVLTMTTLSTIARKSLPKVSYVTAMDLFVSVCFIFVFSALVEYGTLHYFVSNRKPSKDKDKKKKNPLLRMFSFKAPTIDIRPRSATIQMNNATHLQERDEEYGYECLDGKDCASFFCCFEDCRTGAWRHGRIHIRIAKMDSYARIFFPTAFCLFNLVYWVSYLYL
The experiment in a line: Two-electrode voltage-clamp potentiation of GABA EC10 current in Xenopus oocytes, GABAA1. It is filed as cell-based. Particulars: percentage potentiation of GABA EC10 current divided by that of diazepam. The protocol: GABAA receptors were heterologously expressed in Xenopus oocytes by injecting cRNA corresponding to human α1, α2, α3, α5, β2, P3 and γ2 subunits of the GABAA receptor genes. The specific subunit combinations (subtypes) were as follows: α1β2γ2, α2β3γ2, α3β3γ2, and α5β3γ2. The EC10 of GABA is approximated for each cell. Stability of GABA-mediated (EC10) current is established. Modulatory effect of test compound is determined and compared across subtypes. […] Thus, the assay can characterize modulatory effects and determine subtype selectivity of test compounds on major subtypes of GABAA receptors.
Xenopus laevis frogs (Xenopus I, Kalamazoo, Mich.) were anesthetized using 0.15% tricaine. Surgically removed ovarian lobes were teased out in OR2 solution (82 NaCl, 2.5 KCl, 5 HEPES, 1.5 NaH2PO4, 1 MgCl2, 0.1 EDTA, in mM, pH 7.4). The oocytes were defolliculated by incubation in 25 mL OR2 containing 0.2% collagenase 1A (SIGMA) two times for about 60 minutes on a platform shaker and stored in Leibovitz's L-15 medium. Oocytes were injected the following day in 0.5× Leibovitz's L-15 medium containing […] gentamycin, 10 units/ml penicillin, and […] streptomycin.
Capped cRNAs from the linearized vectors containing human α1, β2 and γ2 subunits of the GABAA receptor genes were mixed in ratio of […]. Oocytes were injected with 25-50 nL of mixed RNA with an appx molar ratio for α1, β2, and γ2 as 1:1:10. Oocyte recordings were done 2-10 days after injection. The same methods apply to subtypes derived from α2β3γ2, α3β3γ2, and α5β3γ2, except for 1:1:1 ratio was used for α, β, and γ subunits.
All measurements were done in a medium containing ND-96 (96 NaCl, 2 KCl, 1.8 CaCl2.2H2O, 1 MgCl2.6H2O, 5 HEPES, in mM, pH 7.5). Two-electrode voltage-clamp recording was carried out using OpusXpress amplifier (Axon Instruments, Foster City, Calif.), which allows simultaneous recording from 8 oocytes. Oocytes were impaled with two electrodes of 1-2 MΩ tip resistance when filled with 3M KCl. Recordings were begun when membrane potential became stable at potentials negative to −50-−60 mV. Membrane potential was held at −60 mV. […] The concentration of GABA corresponded to the EC10 value calculated for each oocyte. The modulator pulses started 30 s before the GABA pulse so as to allow preincubation with the modulator. A set of 3 pulses with just GABA without modulator was given prior to the modulator-containing pulses to define the baseline GABA response. Two oocytes per each experiment were dedicated to observe the effect of diazepam on GABA response to ensure the presence of γ2 subunit in the GABAA pentameric complex, which imparts diazepam sensitivity to the complex.
Current amplitude (i) was measured from baseline to peak using Clampfit (Axon Inst., Foster City, Calif.). Potentiation was calculated as percent change from the baseline GABA current flux 100×(imod/icontrol)−1) where imod=current mediated by modulator+GABA and icontrol=current mediated by GABA alone. […] Similarly, a value of −50% potentiation means the presence of modulator caused a 50% decrease in the control current. Various other data shown here were fitted and plotted using GraphPad Prism (GraphPad Software, Inc. San Diego, Calif.). The percentage potentiation was converted to relative potentiation by dividing it with percentage potentiation value obtained from the same assay with diazepam as a control.
In general terms: In two-electrode clamp one electrode senses voltage and the other passes current.

The text below walks through data of patent US20080318943A1, “Compounds and Uses Thereof - 848” (ASTRAZENECA AB, priority 2007, published 2008).

Broadly, the Ki is a dissociation constant, usually derived from enzyme kinetics or from competition with a known ligand. The low end stands for higher affinity, the high end for lower affinity.

T1 sequence (P47869 29-451): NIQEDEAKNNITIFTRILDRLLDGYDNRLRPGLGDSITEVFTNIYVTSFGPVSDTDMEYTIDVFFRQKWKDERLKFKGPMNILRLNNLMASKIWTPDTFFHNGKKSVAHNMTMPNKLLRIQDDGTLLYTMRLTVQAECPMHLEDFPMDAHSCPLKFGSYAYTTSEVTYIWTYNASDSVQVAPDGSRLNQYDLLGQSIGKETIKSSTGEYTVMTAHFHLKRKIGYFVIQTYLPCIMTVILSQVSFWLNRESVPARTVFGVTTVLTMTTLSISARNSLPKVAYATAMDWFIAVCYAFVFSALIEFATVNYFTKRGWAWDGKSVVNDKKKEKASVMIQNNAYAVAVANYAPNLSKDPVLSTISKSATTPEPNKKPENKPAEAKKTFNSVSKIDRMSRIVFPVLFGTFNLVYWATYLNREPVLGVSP
T1 sequence (P28472 26-473 partner): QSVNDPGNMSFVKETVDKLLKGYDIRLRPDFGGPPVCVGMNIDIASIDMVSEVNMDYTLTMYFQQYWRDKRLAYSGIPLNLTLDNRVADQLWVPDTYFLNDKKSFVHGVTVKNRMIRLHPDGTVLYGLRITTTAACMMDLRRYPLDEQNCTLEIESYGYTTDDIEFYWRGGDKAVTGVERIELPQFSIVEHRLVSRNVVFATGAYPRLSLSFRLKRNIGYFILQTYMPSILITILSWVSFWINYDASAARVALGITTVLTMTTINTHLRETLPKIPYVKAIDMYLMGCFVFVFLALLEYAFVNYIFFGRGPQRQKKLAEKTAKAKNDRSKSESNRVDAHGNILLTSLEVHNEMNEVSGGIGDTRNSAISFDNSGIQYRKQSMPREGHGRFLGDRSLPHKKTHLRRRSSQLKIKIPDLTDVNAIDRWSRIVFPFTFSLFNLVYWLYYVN
T1 sequence (P18507 40-475): as the sequence (P18507 40-475) above

Consider `CCCN1Cc2nc3c(-c4cc(F)ccc4C)cccc3c(N)c2C1=O` [9-amino-5-(5-fluoro-2-methylphenyl)-2-propyl-2,3-dihydro-1H-pyrrolo[3,4-b]quinolin-1-one], for which the affinity in test [1] corresponds to a Ki of 6.3 nM. Further, the “Relative Potentiation for GABAA1” value at GABAA receptor α1β2γ2 stood at 0.29.

On to `CCCN1Cc2nc3c(-c4ccccc4Cl)cccc3c(N)c2C1=O` [9-amino-5-(2-chlorophenyl)-2-propyl-2,3-dihydro-1H-pyrrolo[3,4-b]quinolin-1-one], for which the affinity in test [1], expressed as Ki, was 4.82 nM. The “Relative Potentiation for GABAA1” value on GABAA receptor α1β2γ2 is listed as 0.35. `CCN1Cc2nc3c(-c4c(OC)cccc4OC)cccc3c(N)c2C1=O` [9-amino-5-(2,6-dimethoxyphenyl)-2-ethyl-2,3-dihydro-1H-pyrrolo[3,4-b]quinolin-1-one] gave an inhibition constant Ki in test [1] of 82.5 nM. That is a double-digit nanomolar value. On the same count and under the same terms, as for `COc1cc(F)c(-c2cccc3c(N)c4c(nc23)CN(C2CC2)C4=O)cc1F` [9-amino-2-cyclopropyl-5-(2,5-difluoro-4-methoxyphenyl)-2,3-dihydro-1H-pyrrolo[3,4-b]quinolin-1-one], the figure is 36.8 nM. The compound `CCCN1Cc2nc3c(-c4c(F)cccc4OC)c(F)ccc3c(N)c2C1=O` [Example 55, 9-Amino-6-fluoro-5-(2-fluoro-6-methoxyphenyl)-2-propyl-2,3-dihydropyrrolo[3,4-b]quinolin-1-one] had an inhibition constant (Ki) in test [1] of 3.49 nM. This Ki lies about 11-fold lower than the previous one. On the same count and under the same terms, as for `Nc1c2c(nc3c(-c4cc(F)cc(F)c4)cccc13)CN(C1CCC1)C2=O` [9-amino-2-cyclobutyl-5-(3,5-difluorophenyl)-2,3-dihydro-1H-pyrrolo[3,4-b]quinolin-1-one], the figure is 39.3 nM; as for `COc1cc(OC)cc(-c2cccc3c(N)c4c(nc23)CN(C)C4=O)c1` [9-amino-5-(3,5-dimethoxyphenyl)-2-methyl-2,3-dihydro-1H-pyrrolo[3,4-b]quinolin-1-one], 74.1 nM; as for `CCCN1Cc2nc3c(-c4cnc(OC)c(F)c4)cccc3c(N)c2C1=O` [9-amino-5-(5-fluoro-6-methoxypyridin-3-yl)-2-propyl-2,3-dihydro-1H-pyrrolo[3,4-b]quinolin-1-one], 81.1 nM. In test [1], `COc1cc(F)cc(-c2cccc3c(N)c4c(nc23)CN(C)C4=O)c1` [9-amino-5-(3-fluoro-5-methoxyphenyl)-2-methyl-2,3-dihydro-1H-pyrrolo[3,4-b]quinolin-1-one] gave a Ki of 80.4 nM.

`CCN1Cc2nc3c(-c4ccc(C)nc4)cccc3c(N)c2C1=O` [9-amino-2-ethyl-5-(6-methylpyridin-3-yl)-2,3-dihydro-1H-pyrrolo[3,4-b]quinolin-1-one]: the affinity in test [1], expressed as Ki, was 77.6 nM. Still for that read-out and setting: as for `COc1ccc(CN2Cc3nc4c(-c5ccccc5C(F)(F)F)cccc4c(N)c3C2=O)cc1` [9-amino-2-(4-methoxybenzyl)-5-(2-(trifluoromethyl)phenyl)-2,3-dihydro-1H-pyrrolo[3,4-b]quinolin-1-one], the figure is 34.1 nM; as for `COc1cc(F)ccc1-c1cccc2c(N)c3c(nc12)CN(C1CC1)C3=O` [9-amino-2-cyclopropyl-5-(4-fluoro-2-methoxyphenyl)-2,3-dihydro-1H-pyrrolo[3,4-b]quinolin-1-one], 83.1 nM; as for `CCCN1Cc2nc3c(-c4cc(-c5ccncc5)ccc4OC)cccc3c(N)c2C1=O` [9-amino-5-(2-methoxy-5-(pyridin-4-yl)phenyl)-2-propyl-2,3-dihydro-1H-pyrrolo[3,4-b]quinolin-1-one], 51.1 nM. Still for that read-out and setting: as for `CCCN1Cc2nc3c(-c4cnn(C)c4)cccc3c(N)c2C1=O` [9-amino-5-(1-methyl-1H-pyrazol-4-yl)-2-propyl-2,3-dihydro-1H-pyrrolo[3,4-b]quinolin-1-one], the figure is 99.7 nM. For the compound `COc1ccc(-c2cccc3c(N)c4c(nc23)CN(C)C4=O)c(F)c1` [9-amino-5-(2-fluoro-4-methoxyphenyl)-2-methyl-2,3-dihydro-1H-pyrrolo[3,4-b]quinolin-1-one], the affinity in test [1] corresponds to a Ki of 77.8 nM. Regarding `CCCN1Cc2nc3c(-c4cccc(Cl)c4)cccc3c(N)c2C1=O` [9-amino-5-(3-chlorophenyl)-2-propyl-2,3-dihydro-1H-pyrrolo[3,4-b]quinolin-1-one], the Ki in test [1] was found to be 76.5 nM. `COc1ccc(CN2Cc3nc4c(-c5cc(OC)ccc5OC)cccc4c(N)c3C2=O)cc1` [9-amino-5-(2,5-dimethoxyphenyl)-2-(4-methoxybenzyl)-2,3-dihydro-1H-pyrrolo[3,4-b]quinolin-1-one]: the Ki in test [1] is 70.2 nM. The same measure, in the same setting: as for `COc1ccc(-c2c(F)ccc3c(N)c4c(nc23)CN(C2CC2)C4=O)c(OC)n1` [Example 54, 9-Amino-2-cyclopropyl-5-(2,6-dimethoxypyridin-3-yl)-6-fluoro-2,3-dihydropyrrolo[3,4-b]quinolin-1-one], the figure is 14.5 nM; as for `COc1ccc(-c2cccc3c(N)c4c(nc23)CN(C)C4=O)c(OC)c1` [9-amino-5-(2,4-dimethoxyphenyl)-2-methyl-2,3-dihydro-1H-pyrrolo[3,4-b]quinolin-1-one], 79 nM. For `CCN1Cc2nc3c(-c4cc(F)cc(OC)c4)cccc3c(N)c2C1=O` [9-amino-2-ethyl-5-(3-fluoro-5-methoxyphenyl)-2,3-dihydro-1H-pyrrolo[3,4-b]quinolin-1-one], affinity in test [1] was put at a Ki of 34.3 nM.

In test [1], `CCN1Cc2nc3c(-c4cnccc4OC)c(F)ccc3c(N)c2C1=O` [Example 36, 9-Amino-2-ethyl-6-fluoro-5-(4-methoxypyridin-3-yl)-2,3-dihydropyrrolo[3,4-b]quinolin-1-one] registered a Ki of 2.43 nM. On to `COc1ccc(-c2cccc3c(N)c4c(nc23)CN(C)C4=O)cc1OC` [9-amino-5-(3,4-dimethoxyphenyl)-2-methyl-2,3-dihydro-1H-pyrrolo[3,4-b]quinolin-1-one], for which, in test [1], affinity was put at a Ki of 88 nM. Same read-out and setting: the same measure for `CCN1Cc2nc3c(-c4ccc(OC)cc4OC)cccc3c(N)c2C1=O` [9-amino-5-(2,4-dimethoxyphenyl)-2-ethyl-2,3-dihydro-1H-pyrrolo[3,4-b]quinolin-1-one]: 99.1 nM. On the same count and under the same terms, as for `COc1ccc(CN2Cc3nc4c(-c5cc(C)ccc5OC)cccc4c(N)c3C2=O)cc1` [9-amino-5-(2-methoxy-5-methylphenyl)-2-(4-methoxybenzyl)-2,3-dihydro-1H-pyrrolo[3,4-b]quinolin-1-one], the figure is 55.1 nM. Still for that read-out and setting: the same measure for `CCCN1Cc2nc3c(-c4ccc(Cl)nc4Cl)cccc3c(N)c2C1=O` [9-amino-5-(2,6-dichloropyridin-3-yl)-2-propyl-2,3-dihydro-1H-pyrrolo[3,4-b]quinolin-1-one]: 21.6 nM. Turning to `CCCN1Cc2nc3c(-c4ccc(C#N)cc4)cccc3c(N)c2C1=O` [4-(9-amino-1-oxo-2-propyl-2,3-dihydro-1H-pyrrolo[3,4-b]quinolin-5-yl)benzonitrile], in test [1], the Ki is 52.1 nM. Compared with the last compound, the Ki is about 2.4-fold higher. On the same count and under the same terms, as for `CCN1Cc2nc3c(-c4cc(OC)cc(OC)c4)cccc3c(N)c2C1=O` [9-amino-5-(3,5-dimethoxyphenyl)-2-ethyl-2,3-dihydro-1H-pyrrolo[3,4-b]quinolin-1-one], the figure is 27.2 nM.
